This note sets out measurements from patent US20200031825A1, “HETEROAROMATIC-FUSED IMIDAZOLYL AMIDES, COMPOSITIONS AND USES THEREOF AS STING AGONISTS” (Trillium Therapeutics Inc., priority 2018, published 2020).

Counter-ions that a name gives are not always drawn.

Format in all cases: cell-based
One assay addresses T1, mSTING-wt (Mus musculus, UniProt Q3TBT3).
T1 sequence (Q3TBT3 1-378): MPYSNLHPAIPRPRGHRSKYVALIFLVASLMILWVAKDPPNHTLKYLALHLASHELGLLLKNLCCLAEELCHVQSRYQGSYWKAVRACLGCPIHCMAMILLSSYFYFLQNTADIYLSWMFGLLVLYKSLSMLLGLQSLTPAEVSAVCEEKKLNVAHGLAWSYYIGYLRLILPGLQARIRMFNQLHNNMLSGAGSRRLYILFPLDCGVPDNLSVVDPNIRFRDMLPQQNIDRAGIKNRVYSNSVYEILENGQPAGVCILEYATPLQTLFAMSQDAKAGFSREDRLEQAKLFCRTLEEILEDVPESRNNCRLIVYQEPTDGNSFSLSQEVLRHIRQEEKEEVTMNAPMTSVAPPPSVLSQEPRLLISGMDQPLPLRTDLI
Briefly: Cellular Functional Assay I: ISRE-SEAP reporter in HEK-293T-Dual Null cells transfected with mouse STING. Particulars: SEAP reporter, HEK-293T-Dual Null, mSTING-wt; read-out: EC50 mSTING-wt.

A further assay concerns the target T2, hSTING-AQ (Homo sapiens, UniProt Q86WV6, G230A/R293Q).
T2 construct: expressed in transfected cells
Put plainly: Cellular Functional Assay I: ISRE-SEAP reporter, hSTING-AQ allele.

The target in a further assay is T3, hSTING-Q (Homo sapiens, UniProt Q86WV6, R293Q).
T3 construct: expressed in transfected cells
T3 sequence (Q86WV6 whole entry R293Q): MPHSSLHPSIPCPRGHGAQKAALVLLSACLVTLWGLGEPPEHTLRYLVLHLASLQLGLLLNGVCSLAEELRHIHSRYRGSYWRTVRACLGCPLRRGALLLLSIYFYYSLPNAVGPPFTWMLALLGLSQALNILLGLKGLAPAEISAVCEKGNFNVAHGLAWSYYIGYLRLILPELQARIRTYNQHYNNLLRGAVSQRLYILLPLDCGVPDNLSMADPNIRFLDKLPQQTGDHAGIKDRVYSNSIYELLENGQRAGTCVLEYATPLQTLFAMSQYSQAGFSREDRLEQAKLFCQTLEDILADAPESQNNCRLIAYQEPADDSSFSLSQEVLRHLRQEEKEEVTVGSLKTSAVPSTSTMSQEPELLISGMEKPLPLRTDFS
Put plainly: Cellular Functional Assay I: ISRE-SEAP reporter, hSTING-Q allele.

In the next assay the target is hSTING-HAQ (Homo sapiens, UniProt Q86WV6, G230A/H232R/R293Q/R71H). Put plainly: Cellular Functional Assay I: ISRE-SEAP reporter in HEK-293T-Dual Null cells transfected with hSTING-HAQ. Particulars: HEK-293T-Dual Null, hSTING-HAQ.
Chain of hSTING-HAQ (Q86WV6 whole entry R71H/G230A/H232R/R293Q): as the sequence (Q86WV6 whole entry R293Q) above, with R71H, G230A, H232R counted along it
The next assay has as its target hSTING-wt (Homo sapiens, UniProt Q86WV6). Put plainly: Cellular Functional Assay I: ISRE-SEAP reporter in HEK-293T-Dual Null cells transfected with hSTING-wt. Particulars: HEK-293T-Dual Null, hSTING-wt.
A further assay concerns the target hSTING-H232 (Homo sapiens, UniProt Q86WV6). Put plainly: Cellular Functional Assay I: ISRE-SEAP reporter in HEK-293T-Dual Null cells transfected with hSTING-H232. Particulars: HEK-293T-Dual Null, hSTING-H232.

T2 sequence (Q86WV6 whole entry G230A/H232R/R293Q): as the sequence (Q86WV6 whole entry R293Q) above, with G230A, H232R counted along it
Chain of hSTING-wt (Q86WV6 whole entry H232R): as the sequence (Q86WV6 whole entry R293Q) above, with H232R, Q293R counted along it
Chain of hSTING-H232 (Q86WV6 whole entry): as the sequence (Q86WV6 whole entry R293Q) above, with Q293R counted along it

For the compound `CCn1nc(C)cc1C(=O)Nc1nc2cc(C(N)=O)cc(C)c2n1C/C=C/Cn1c(NC(=O)c2cnc(C)s2)nc2cc(C(N)=O)cnc21` [Compound C, N-[6-carbamoyl-3-[(E)-4-[5-carbamoyl-2-[(2-ethyl-5-methyl-pyrazole-3-carbonyl)amino]-7-methyl-benzimidazol-1-yl]but-2-enyl]imidazo[4,5-b]pyridin-2-yl]-2-methyl-thiazole-5-carboxamide Hydrochloride], the EC50 (usually the concentration at which the effect is half-maximal) was greater than 500 nM at mSTING-wt; 1 to 500 nM on hSTING-AQ; 1 to 500 nM on hSTING-Q; greater than 500 nM on hSTING-HAQ; 1 to 500 nM at hSTING-wt; 1 to 500 nM on hSTING-H232.

With `CCn1nc(C)cc1C(=O)Nc1nc2cc(C(N)=O)cnc2n1C/C=C/CNC(=O)OC(C)(C)C` [Compound D, tert-butyl N-[(E)-4-[6-carbamoyl-2-[(2-ethyl-5-methyl-pyrazole-3-carbonyl)amino]imidazo[4,5-b]pyridin-3-yl]but-2-enyl]carbamate], the EC50 at mSTING-wt, on hSTING-AQ, on hSTING-Q, at hSTING-HAQ, at hSTING-wt and at hSTING-H232 was greater than 500 nM each time.

`CCn1nc(C)cc1C(=O)Nc1nc2cc(C(N)=O)cnc2n1CCCCNC(=O)OC(C)(C)C` [Compound E, tert-butyl N-[4-[6-carbamoyl-2-[(2-ethyl-5-methyl-pyrazole-3-carbonyl)amino]imidazo[4,5-b]pyridin-3-yl]butyl]carbamate]: the EC50 on mSTING-wt, on hSTING-AQ, at hSTING-Q, on hSTING-HAQ, at hSTING-wt and at hSTING-H232 was greater than 500 nM each time.

Turning to `CCn1nc(C)cc1C(=O)Nc1nc2cc(C(N)=O)cnc2n1C/C=C/CNC(=O)OCc1ccccc1` [Compound F, benzyl N-[(E)-4-[6-carbamoyl-2-[(2-ethyl-5-methyl-pyrazole-3-carbonyl)amino]imidazo[4,5-b]pyridin-3-yl]but-2-enyl]carbamate], the EC50 at mSTING-wt, on hSTING-AQ, at hSTING-Q, on hSTING-HAQ, on hSTING-wt and at hSTING-H232 was greater than 500 nM each time.

In the case of `CCn1nc(C)cc1C(=O)Nc1nc2cc(C(N)=O)cnc2n1CCCCNC(=O)OCc1ccccc1` [Compound G, benzyl N-[4-[6-carbamoyl-2-[(2-ethyl-5-methyl-pyrazole-3-carbonyl)amino]imidazo[4,5-b]pyridin-3-yl]butyl]carbamate], the EC50 on mSTING-wt, on hSTING-AQ, at hSTING-Q, at hSTING-HAQ, at hSTING-wt and at hSTING-H232 was greater than 500 nM each time.

In the case of `CCn1nc(C)cc1C(=O)Nc1nc2cc(C(N)=O)sc2n1C/C=C/Cn1c(NC(=O)c2cc(C)nn2CC)nc2cc(C(N)=O)cc(OCCCN(C)C)c21` [Compound O, 3-[(E)-4-[5-carbamoyl-7-[3-(dimethylamino)propoxy]-2-[(2-ethyl-5-methyl-pyrazole-3-carbonyl)amino]benzimidazol-1-yl]but-2-enyl]-2-[(2-ethyl-5-methyl-pyrazole-3-carbonyl)amino]thieno[2,3-d]imidazole-5-carboxamide], the EC50 on hSTING-wt and at hSTING-H232 was 1 to 500 nM in each case.

For the compound `CCn1nc(C)cc1C(=O)Nc1nc2cc(C(N)=O)sc2n1C/C=C/Cn1c(NC(=O)c2cc(C)nn2CC)nc2cc(C(N)=O)cc(OCCCNC)c21` [Compound Q, 3-[(E)-4-[5-carbamoyl-2-[(2-ethyl-5-methyl-pyrazole-3-carbonyl)amino]-7-[3-(methylamino)propoxy]benzimidazol-1-yl]but-2-enyl]-2-[(2-ethyl-5-methyl-pyrazole-3-carbonyl)amino]thieno[2,3-d]imidazole-5-carboxamide], the EC50 on hSTING-wt and at hSTING-H232 was 1 to 500 nM each time.
